pEC50: −log10 of the molar value.
Columns and labels:
[1] = molecular target: Sphingosine 1-phosphate receptor 1 (Homo sapiens, UniProt P21453); experiment: Agonist activity at human S1P1 receptor assessed as stimulation of [35S]GTPgamma binding; type: functional
[2] = molecular target: Sphingosine 1-phosphate receptor 3 (Homo sapiens, UniProt Q99500); experiment: Agonist activity at human S1P3 receptor assessed as stimulation of [35S]GTPgamma binding; type: functional
Homo sapiens = species: Homo sapiens; experiment: Selectivity ratio of EC50 for human S1P3 receptor to EC50 for human S1P1 receptor
Rattus norvegicus [3] = experiment: Immunosuppressive activity in po dosed LEW rat model assessed as inhibition of WKAH rat spleen cells-induced popliteal lymph node swelling administered qd for 4 days measured at day 4 by host versus graft reaction analysis; type: functional; conditions: 96 h, read-out: ID50 (the source's name)
Rattus norvegicus [4] = experiment: Immunosuppressive activity in LEW rat model assessed as inhibition of WKAH rat spleen cells-induced popliteal lymph node swelling at 1 mg/kg, po administered qd for 4 days measured at day 4 by host versus graft reaction analysis; type: functional; conditions: 96 h

Sequence of Sphingosine 1-phosphate receptor 1 (P21453 whole entry): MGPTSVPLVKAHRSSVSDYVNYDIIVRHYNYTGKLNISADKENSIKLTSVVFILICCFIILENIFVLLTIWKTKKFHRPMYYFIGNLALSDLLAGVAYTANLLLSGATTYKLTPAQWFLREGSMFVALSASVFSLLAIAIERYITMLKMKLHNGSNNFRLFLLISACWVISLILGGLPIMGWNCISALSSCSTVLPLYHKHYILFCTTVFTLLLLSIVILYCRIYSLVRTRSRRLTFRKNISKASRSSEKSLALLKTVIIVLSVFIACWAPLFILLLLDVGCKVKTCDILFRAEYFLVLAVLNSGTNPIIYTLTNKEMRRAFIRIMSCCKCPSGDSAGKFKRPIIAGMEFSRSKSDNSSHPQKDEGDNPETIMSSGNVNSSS
Sequence of Sphingosine 1-phosphate receptor 3 (Q99500 whole entry): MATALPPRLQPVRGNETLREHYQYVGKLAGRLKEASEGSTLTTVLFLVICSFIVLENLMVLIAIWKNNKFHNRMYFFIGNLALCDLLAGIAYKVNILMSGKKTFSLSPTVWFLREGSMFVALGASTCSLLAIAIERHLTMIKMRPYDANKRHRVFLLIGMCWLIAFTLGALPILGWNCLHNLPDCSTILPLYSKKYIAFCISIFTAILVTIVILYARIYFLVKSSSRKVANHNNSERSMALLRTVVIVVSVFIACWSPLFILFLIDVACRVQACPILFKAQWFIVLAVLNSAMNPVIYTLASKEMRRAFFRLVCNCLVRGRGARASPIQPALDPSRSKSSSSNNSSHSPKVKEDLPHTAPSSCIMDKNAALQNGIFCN

Q: What does the source list for `Cc1cc(-c2nc(-c3csc(CN4CC(C(=O)O)C4)c3)no2)ccc1Oc1ccccc1`?
A: pEC50 [1]: 7.68; pEC50 [2]: 5.52; Ratio EC50 (Homo sapiens): 142

Q: `CCCOc1ccc(-c2nc(-c3csc(CN4CC(C(=O)O)C4)c3)no2)cc1` was tested. Which pEC50 [1] did it give?
A: Its pEC50 is 7.22.

Q: And the pEC50 [2]?
A: Its pEC50 is under 4.70.

Q: What about the Ratio EC50 (Homo sapiens) of the same molecule?
A: The Ratio EC50 was over 333.

Q: `CCc1cc(CN2CC(C(=O)O)C2)sc1-c1noc(-c2ccc(Oc3ccccc3)cc2)n1` was tested. Which pEC50 [1] did it give?
A: Its pEC50 is 8.40.

Q: What about the pEC50 [2] of the same molecule?
A: The pEC50 was under 4.70.

Q: What about the Ratio EC50 (Homo sapiens) of the same molecule?
A: Its Ratio EC50 is over 5000.

Q: What about the ED50 (Rattus norvegicus [3]) of the same molecule?
A: Its ED50 is 0.407 mg/kg.

Q: What does the source list for `Cc1cc(-c2noc(-c3ccc(Oc4ccccc4)cc3)n2)sc1CN1CC(C(=O)O)C1`?
A: pEC50 [1]: 7.60; pEC50 [2]: < 4.70; Ratio EC50 (Homo sapiens): > 800

Q: With `CCc1ccccc1Oc1ccc(-c2nc(-c3sc(CN4CC(C(=O)O)C4)cc3CC)no2)cc1` as the molecule, how does the pEC50 [1] read?
A: Its pEC50 is 8.19.

Q: And the pEC50 [2]?
A: Its pEC50 is 5.00.

Q: What about the inhibition in vivo at 1 mg/kg (Rattus norvegicus [4]) of the same molecule?
A: Its inhibition in vivo at 1 mg/kg is 62%.

Q: `CCc1cc(CN2CC(C(=O)O)C2)sc1-c1noc(-c2ccc(Oc3ccccc3Cl)cc2)n1` was tested. Which pEC50 [1] did it give?
A: The pEC50 was 8.19.

Q: And the pEC50 [2]?
A: Its pEC50 is under 4.70.

Q: What about the ED50 (Rattus norvegicus [3]) of the same molecule?
A: Its ED50 is 0.461 mg/kg.

Q: How did the pEC50 [1] turn out when `CCCCc1ccccc1Oc1ccc(-c2nc(-c3sc(CN4CC(C(=O)O)C4)cc3CC)no2)cc1` was run?
A: Its pEC50 is 8.05.

Q: And the pEC50 [2]?
A: The pEC50 was under 4.70.

Q: What about the inhibition in vivo at 1 mg/kg (Rattus norvegicus [4]) of the same molecule?
A: The inhibition in vivo at 1 mg/kg was 66%.

Q: With `O=C(O)C1CN(Cc2cc(-c3noc(-c4cc(-c5ccccc5)c(C(F)(F)F)s4)n3)cs2)C1` as the molecule, how does the pEC50 [1] read?
A: The pEC50 was 8.19.

Q: What about the pEC50 [2] of the same molecule?
A: The pEC50 was 6.10.

Q: And the Ratio EC50 (Homo sapiens)?
A: Its Ratio EC50 is 123.

Q: How did the pEC50 [1] turn out when `Cc1cc(Oc2ccccc2)ccc1-c1nc(-c2csc(CN3CC(C(=O)O)C3)c2)no1` was run?
A: The pEC50 was 6.22.

Q: And the pEC50 [2]?
A: Its pEC50 is under 4.70.

Q: What about the Ratio EC50 (Homo sapiens) of the same molecule?
A: The Ratio EC50 was over 33.

Q: How did the pEC50 [1] turn out when `O=C(O)C1CN(Cc2cc(-c3noc(-c4ccc(-c5ccccc5)cc4)n3)cs2)C1` was run?
A: Its pEC50 is 7.52.

Q: What about the pEC50 [2] of the same molecule?
A: The pEC50 was under 4.70.

Q: What about the Ratio EC50 (Homo sapiens) of the same molecule?
A: The Ratio EC50 was over 666.

Q: `CC(C)c1cc(CN2CC(C(=O)O)C2)sc1-c1noc(-c2ccc(Oc3ccccc3)cc2)n1` was tested. Which pEC50 [1] did it give?
A: The pEC50 was 7.12.

Q: And the pEC50 [2]?
A: Its pEC50 is 4.82.

Q: What about the Ratio EC50 (Homo sapiens) of the same molecule?
A: The Ratio EC50 was 200.

Q: What does the source list for `CCc1cc(CN2CC(C(=O)O)C2)sc1-c1noc(-c2ccc(Oc3ccccc3C)cc2)n1`?
A: pEC50 [1]: 8.52; pEC50 [2]: 5.35; inhibition in vivo at 1 mg/kg (Rattus norvegicus [4]): 35%

Q: With `Cc1cc(CN2CC(C(=O)O)C2)sc1-c1noc(-c2ccc(Oc3ccccc3)cc2)n1` as the molecule, how does the pEC50 [1] read?
A: Its pEC50 is 7.96.

Q: What about the pEC50 [2] of the same molecule?
A: Its pEC50 is under 4.70.

Q: What about the Ratio EC50 (Homo sapiens) of the same molecule?
A: The Ratio EC50 was over 1820.

Q: How did the pEC50 [1] turn out when `CCCc1cc(CN2CC(C(=O)O)C2)sc1-c1noc(-c2ccc(Oc3ccccc3)cc2)n1` was run?
A: The pEC50 was 7.52.

Q: What about the pEC50 [2] of the same molecule?
A: The pEC50 was 4.89.

Q: What about the Ratio EC50 (Homo sapiens) of the same molecule?
A: Its Ratio EC50 is 433.

Q: How did the pEC50 [1] turn out when `CCc1cc(CN2CC(C(=O)O)C2)sc1-c1noc(-c2ccc(Oc3ccccc3)c(F)c2)n1` was run?
A: Its pEC50 is 8.30.

Q: And the pEC50 [2]?
A: The pEC50 was under 4.70.

Q: And the ED50 (Rattus norvegicus [3])?
A: Its ED50 is 0.142 mg/kg.

Q: With `CCc1cc(CN2CC(C(=O)O)C2)sc1-c1noc(-c2ccc(Oc3ccccc3C(C)C)cc2)n1` as the molecule, how does the pEC50 [1] read?
A: Its pEC50 is 8.35.

Q: What about the pEC50 [2] of the same molecule?
A: The pEC50 was 4.96.

Q: With `O=C(O)C1CN(Cc2ccc(-c3noc(-c4ccc(Oc5ccccc5)cc4)n3)s2)C1` as the molecule, how does the pEC50 [1] read?
A: Its pEC50 is 9.00.

Q: What about the pEC50 [2] of the same molecule?
A: Its pEC50 is 6.05.

Q: What about the Ratio EC50 (Homo sapiens) of the same molecule?
A: The Ratio EC50 was 900.

Q: `CCc1cc(-c2noc(-c3ccc(Oc4ccccc4)cc3)n2)sc1CN1CC(C(=O)O)C1` was tested. Which pEC50 [1] did it give?
A: The pEC50 was 7.92.

Q: What about the pEC50 [2] of the same molecule?
A: The pEC50 was under 4.70.

Q: And the Ratio EC50 (Homo sapiens)?
A: Its Ratio EC50 is over 1670.

Q: With `Cc1ccccc1Oc1ccc(-c2nc(-c3csc(CN4CC(C(=O)O)C4)c3)no2)cc1` as the molecule, how does the pEC50 [1] read?
A: The pEC50 was 7.46.

Q: What about the pEC50 [2] of the same molecule?
A: The pEC50 was 5.70.

Q: What about the Ratio EC50 (Homo sapiens) of the same molecule?
A: Its Ratio EC50 is 57.

Q: How did the pEC50 [1] turn out when `CCc1cc(CN2CC(C(=O)O)C2)sc1-c1noc(-c2ccc(Oc3ccccc3)c(Cl)c2)n1` was run?
A: The pEC50 was 8.30.

Q: And the pEC50 [2]?
A: The pEC50 was under 4.70.

Q: What about the inhibition in vivo at 1 mg/kg (Rattus norvegicus [4]) of the same molecule?
A: Its inhibition in vivo at 1 mg/kg is 49%.

Q: With `CCCc1ccccc1Oc1ccc(-c2nc(-c3sc(CN4CC(C(=O)O)C4)cc3CC)no2)cc1` as the molecule, how does the pEC50 [1] read?
A: Its pEC50 is 7.89.

Q: What about the pEC50 [2] of the same molecule?
A: Its pEC50 is under 4.70.

Q: And the inhibition in vivo at 1 mg/kg (Rattus norvegicus [4])?
A: Its inhibition in vivo at 1 mg/kg is 56%.

Q: What does the source list for `O=C(O)C1CN(Cc2ccc(-c3noc(-c4cc(-c5ccccc5)c(C(F)(F)F)s4)n3)cc2)C1`?
A: pEC50 [1]: 8.38; pEC50 [2]: 5.80; Ratio EC50 (Homo sapiens): 380

Q: How did the pEC50 [1] turn out when `O=C(O)C1CN(Cc2cc(-c3noc(-c4cccc(-c5ccccc5)c4)n3)cs2)C1` was run?
A: Its pEC50 is 6.07.

Q: What about the pEC50 [2] of the same molecule?
A: The pEC50 was under 4.70.

Q: What about the Ratio EC50 (Homo sapiens) of the same molecule?
A: Its Ratio EC50 is over 23.

Q: What does the source list for `CCc1cc(CN2CC(C(=O)O)C2)sc1-c1noc(-c2ccc(Oc3ccccc3)c(C)c2)n1`?
A: pEC50 [1]: 8.12; pEC50 [2]: 5.22

Q: With `O=C(O)C1CN(Cc2csc(-c3noc(-c4ccc(Oc5ccccc5)cc4)n3)c2)C1` as the molecule, how does the pEC50 [1] read?
A: Its pEC50 is 7.47.

Q: What about the pEC50 [2] of the same molecule?
A: The pEC50 was under 4.70.

Q: What about the Ratio EC50 (Homo sapiens) of the same molecule?
A: Its Ratio EC50 is over 588.

Q: How did the pEC50 [1] turn out when `O=C(O)C1CN(Cc2cc(-c3noc(-c4ccc(OCc5ccccc5)cc4)n3)cs2)C1` was run?
A: Its pEC50 is under 4.70.

Q: What about the pEC50 [2] of the same molecule?
A: The pEC50 was under 4.70.

Q: How did the pEC50 [1] turn out when `CCc1cc(CN2CC(C(=O)O)C2)sc1-c1noc(-c2ccc(Oc3ccccc3)c(OC)c2)n1` was run?
A: Its pEC50 is 7.85.

Q: And the pEC50 [2]?
A: The pEC50 was under 4.70.

Q: `CCc1cc(CN2CC(C(=O)O)C2)sc1-c1noc(-c2ccc(Oc3ccccc3F)cc2)n1` was tested. Which pEC50 [1] did it give?
A: The pEC50 was 8.07.

Q: And the pEC50 [2]?
A: Its pEC50 is under 4.70.

Q: And the ED50 (Rattus norvegicus [3])?
A: Its ED50 is 0.369 mg/kg.

Q: What does the source list for `CCc1cc(CN2CC(C(=O)O)C2)sc1-c1noc(-c2ccc(Oc3ccccc3OC)cc2)n1`?
A: pEC50 [1]: 8.40; pEC50 [2]: 4.82; inhibition in vivo at 1 mg/kg (Rattus norvegicus [4]): 74%

Q: `Cc1cccc(Oc2ccc(-c3nc(-c4csc(CN5CC(C(=O)O)C5)c4)no3)cc2)c1` was tested. Which pEC50 [1] did it give?
A: The pEC50 was 6.70.

Q: And the pEC50 [2]?
A: Its pEC50 is under 4.70.

Q: What about the Ratio EC50 (Homo sapiens) of the same molecule?
A: The Ratio EC50 was over 100.

Q: `O=C(O)C1CN(Cc2cc(-c3noc(-c4ccc(Oc5ccccc5)cc4)n3)cs2)C1` was tested. Which pEC50 [1] did it give?
A: Its pEC50 is 8.07.

Q: What about the pEC50 [2] of the same molecule?
A: Its pEC50 is 5.34.

Q: And the Ratio EC50 (Homo sapiens)?
A: Its Ratio EC50 is 541.

Q: How did the pEC50 [1] turn out when `Cc1ccc(Oc2ccc(-c3nc(-c4csc(CN5CC(C(=O)O)C5)c4)no3)cc2)cc1` was run?
A: The pEC50 was 6.96.

Q: What about the pEC50 [2] of the same molecule?
A: The pEC50 was 4.92.

Q: What about the Ratio EC50 (Homo sapiens) of the same molecule?
A: The Ratio EC50 was 109.

— ChEMBL document CHEMBL1949506, “Discovery of CS-2100, a potent, orally active and S1P3-sparing S1P1 agonist” (Bioorg Med Chem Lett, 2012)
